Experimental data: patent US20240239757A1, “PHTHALAZINONE DERIVATES AS NLRP3 INFLAMMASOME INHIBITORS” (JANSSEN PHARMACEUTICA NV, priority 2021, published 2024)
pEC50, pIC50: −log10 of the molar value.

How the values were obtained:
IL-1β = test: PBMC assay, IL-1β; format: cell-based; conditions: human PBMCs, 30 min with compound, then 100 ng/ml LPS for 6 hrs, supernatant analysed via MSD technology, read-out: IL1β IC50
Protocol: The activity of a compound according to the present invention can be assessed by in vitro methods.
(§1) Peripheral venous blood was collected from healthy individuals and human peripheral blood mononuclear cells (PBMCs) were isolated from blood by Ficoll-Histopaque (Sigma-Aldrich, A0561) density gradient centrifugation. After isolation, PBMCs were stored in liquid nitrogen for later use. Upon thawing, PBMC cell viability was determined in growth medium (RPMI media supplemented with 10% fetal bovine serum, 1% Pen-Strep and 1% L-glutamine). Compounds were spotted in a 1:3 serial dilution in DMSO and diluted to the final concentration in 30 μl medium in 96 well plates (Falcon, 353072). PBMCs were added at a density of 7.5×10^4 cells per well and incubated for 30 min in a 5% CO2 incubator at 37° C. LPS stimulation was performed by addition of 100 ng/ml LPS (final concentration, Invivogen, tlrl-smlps) for 6 hrs followed by collection of cellular supernatant and the analysis of IL-1β (μM) and TNF cytokines levels (μM) via MSD technology according to manufacturers' guidelines (MSD, K151A0H).
(§2) The IC50 values (for IL-1β) and EC50 values (TNF) were obtained on compounds of formula (I)/examples, and are depicted in the following table: […]

TNF = test: PBMC assay, TNF; format: cell-based; conditions: human PBMCs, 30 min with compound, then 100 ng/ml LPS for 6 hrs, supernatant analysed via MSD technology
Protocol: as §1, §2

SMILES | pIC50 (IL-1β) | pEC50 (TNF) | melting point [°C]
CN(C)c1nn(CC(=O)Nc2ccc3nncn3c2)c(=O)c2ccc(C(F)(F)F)cc12 [Compound 1H, N-([1,2,4]triazolo[4,3-a]pyridin-6-yl)-2-(4-(dimethylamino)-1-oxo-6-(trifluoromethyl)phthalazin-2(1H)-yl)acetamide] | 7.10 | < 5.00 | –
CN(C)c1nn(CC(=O)Nc2ccncn2)c(=O)c2ccc(C(F)(F)F)cc12 [Compound 1I] | 6.77 | < 5.00 | 238.3
CN(C)c1nn(CC(=O)N[C@H]2C[C@@](C)(O)C2)c(=O)c2ccc(C(F)(F)F)cc12 [Compound 1J] | 7.15 | < 5.00 | 184.8
CN(C)c1nn(CC(=O)Nc2ccc(=O)n(C)n2)c(=O)c2ccc(C(F)(F)F)cc12 [Compound 1K] | 6.44 | < 5.00 | 241.8
CN(C)c1nn(CC(=O)Nc2ccc3nncn3n2)c(=O)c2ccc(C(F)(F)F)cc12 [Compound 2A, N-([1,2,4]triazolo[4,3-b]pyridazin-6-yl)-2-(4-(dimethylamino)-1-oxo-6-(trifluoromethyl)phthalazin-2(1H)-yl)acetamide] | 7.15 | < 5.00 | –
O=C(Cn1nc(N2CC(F)(F)C2)c2cc(C(F)(F)F)ccc2c1=O)Nc1ccc2nncn2c1 [Compound 3C] | < 5.00 | < 5.00 | –
O=C(Cn1nc(N2CC(F)(F)C2)c2cc(C(F)(F)F)ccc2c1=O)Nc1ccncn1 [Compound 3D] | 5.48 | < 5.00 | 288.6
O=C(Cn1nc(N2CC(F)(F)C2)c2cc(C(F)(F)F)ccc2c1=O)Nc1ccnnc1 [Compound 3E] | 5.02 | < 5.00 | 221.6
C[C@]1(O)C[C@@H](NC(=O)Cn2nc(N3CC(F)(F)C3)c3cc(C(F)(F)F)ccc3c2=O)C1 [Compound 3F] | 5.51 | < 5.00 | 213.3
CC(C)n1ccc(NC(=O)Cn2nc(N3CC(F)(F)C3)c3cc(C(F)(F)F)ccc3c2=O)n1 [Compound 3G] | < 5.00 | < 5.00 | 220
O=C(Cn1nc(N2CC(F)(F)C2)c2cc(Br)ccc2c1=O)Nc1ccncn1 [Compound 4G] | 5.37 | < 5.00 | 286.8
CN(C)c1nn(CC(=O)N[C@H]2C[C@@](C)(O)C2)c(=O)c2ccc(Br)cc12 [Compound 5C] | 7.52 | < 5.00 | 193.2
CN(C)c1nn(CC(=O)Nc2ccc3nncn3c2)c(=O)c2ccc(Br)cc12 [Compound 5D] | 7.30 | < 5.00 | > 300
CN(C)c1nn(CC(=O)Nc2ccc(=O)n(C)n2)c(=O)c2ccc(Br)cc12 [Compound 5E] | 6.77 | < 5.00 | 246.8
CN(C)CCN(C)c1nn(CC(=O)Nc2ccc3nncn3c2)c(=O)c2ccc(C(F)(F)F)cc12 [Compound 6C] | < 5.00 | < 5.00 | –

Further lines, results first:

pIC50 (IL-1β) | pEC50 (TNF) | melting point [°C] | SMILES
5.25 | < 5.00 | – | COCCN(C)c1nn(CC(=O)Nc2ccc3nncn3c2)c(=O)c2ccc(C(F)(F)F)cc12 [Compound 7C]
6.92 | < 5.00 | 184.8 | CN(C)c1nn(CC(=O)N[C@H]2C[C@@](C)(O)C2)c(=O)c2ccc(Cl)cc12 [Compound 8H]
6.51 | < 5.00 | 295.3 | CN(C)c1nn(CC(=O)Nc2ccc3nncn3c2)c(=O)c2ccc(Cl)cc12 [Compound 8I]
6.08 | < 5.00 | 253.4 | CN(C)c1nn(CC(=O)Nc2ccc(=O)n(C)n2)c(=O)c2ccc(Cl)cc12 [Compound 8J]
< 5.00 | < 5.00 | 173.1 | CN(C)c1nn(CC(=O)N[C@H]2C[C@@](C)(O)C2)c(=O)c2cc(Cl)ccc12 [Compound 9H]
< 5.00 | < 5.00 | 213.2 | CN(C)c1nn(CC(=O)Nc2ccc(=O)n(C)n2)c(=O)c2cc(Cl)ccc12 [Compound 9I]
< 5.00 | < 5.00 | > 300 | CN(C)c1nn(CC(=O)Nc2ccc3nncn3c2)c(=O)c2cc(Cl)ccc12 [Compound 9J]
6.89 | < 5.00 | 270.3 | CN(C)c1nn(CC(=O)Nc2ccc3nncn3n2)c(=O)c2ccc(Cl)cc12 [Compound 10A]
7.30 | < 5.00 | 231.6 | CN(C)c1nn(CC(=O)Nc2ccc3nncn3n2)c(=O)c2ccc(Br)cc12 [Compound 11A]
